{"source": "patent US8440634B2", "about": "“Bicyclic derivatives of morphine-6-glucuronide, preparation method thereof and use of same in therapeutics” (Sanofi, priority 2008, dated 2013)", "key": {"[1]": {"system": "nociceptive reflex response (tail removal caused by painful heat stimulus)", "assay": "\"Tail-Flick\" test, analgesic activity", "type": "in vivo, male Swiss mice", "settings": "mice", "method": "Tests consisting in measuring the in vivo activity of the compounds of the invention on a nociceptive reflex response were performed. In this approach, the latency of the animal's nociceptive reflex response is measured as a pain indicator.\nThe analgesic activity was determined by means of the “tail-flick” test in male Swiss mice (Iffa Credo). This test is based on the spontaneous nociceptive reflex of removal of the animal's tail caused by a painful heat stimulus (infrared source). The “tail-flick” test (D'Amour-Smith test, 1941, Pharmacol. Exp. Ther.; 72: 74-79) consists, after administering a product, in placing a mouse's tail at the focal point of the infrared source so as to produce a nociceptive heat stimulus (surface temperature of about 55-60° C.). The mouse's reaction time (RT) (latency between the moment when the light beam is switched on and the moment when the mouse removes its tail) was measured in duplicate at different times ranging from 20 minutes to 120 minutes after administration of the product. The heat intensity is regulated such that this removal reflex is between 0.5 and 3.5 seconds in the control animals, and arbitrarily represents the criterion for minimum analgesia (0%). Two reaction time measurements were taken before administration of the product for each mouse, to establish a baseline measurement time. A maximum time of 8 seconds was chosen as the maximum reaction time so as not to induce tissue damage by burning the animals, and arbitrarily represents the criterion for maximum analgesia (100%). The reaction time is increased by the analgesics relative to a control animal not receiving any treatment. The products were administered subcutaneously and orally at doses of between 1.25 and 30 mg/kg. […]\nThe percentage of analgesic activity (% MPE) is determined by the following formula: %MPE=(RTpost-administration−RTpre-administration)*100/(RTmax−RTpre-administration)."}}, "data": [{"smiles": "CN1CC[C@]23c4c5ccc(O)c4O[C@H]2C(O[C@@H]2OC(c4nc6n(n4)CCC(O)N6)[C@@H](O)C(O)C2O)C=CC3[C@H]1C5", "note": "(stereo partly drawn) [morphin-6-yl 5-C-(5-hydroxy-4,5,6,7-tetrahydro[1,2,4]triazolo[1,5-a]pyrimidin-2-yl)-β-D-xylopyranoside]", "values": [{"measurement": "melting point", "result": 201, "unit": "°C"}, {"measurement": "ED50", "setting": "[1]; Mus musculus, sc, 1 h, subcutaneous, determined 60 minutes after administration", "result": "< 1.25", "unit": "mg/kg"}, {"measurement": "duration of the analgesic action", "setting": "[1]; subcutaneous administration", "result": "more than 120 minutes"}, {"measurement": "maximum percentage of analgesic activity (% MPE max index)", "setting": "[1]; subcutaneous, dose of 1.25 mg/kg", "result": 80, "unit": "%"}]}]}
